Experimental data taken from US20090012152A1, “Use of Tetramic Acid Derivatives for Controlling Insects from the Genus of the Plane Lice (Sternorrhyncha)” (Bayer CropScience Aktiengesellschaft, priority 2005, published 2009).

Tested on: Macrosiphum euphorbiae
Experiment: Example 55: strawberry plants treated against Macrosiphum euphorbiae
Assay type: in vivo
Conditions: nymphs on strawberry plants, g a.i./ha: Calypso 120, I-4 75
Experimental: In four replications, plots of a size of about 3 m^2 with 3-week-old strawberry plants are treated against Macrosiphum euphorbiae and Rhodobium porosum. The application is carried out using a knapsack sprayer operated with pressurized air. Here, the active compound Example (I-4) (150 OD) and the commercial standard Calypso (480 SC) are tested at the stated application rates. Here, the standard is sprayed as a tank mix with 0.03% of Motto (adjuvant). The application rate is 500 l of water/ha.
Evaluation is carried out 7 and 14 days after the second treatment by rating the kill of the nymphs on the plants.

CCOC(=O)OC1=C(c2cc(C)ccc2C)C(=O)NC12CCC(OC)CC2 (centres unmarked) [Example (I-4)]
Macrosiphum euphorbiae Kill (%) 7 d (7 d after second treatment): 62.2%
Macrosiphum euphorbiae Kill (%) 14 d (14 d after second treatment): 94%
